Data from US20070142433A1, “Angiogenesis-affecting compounds and methods of use thereof” (priority 2004, published 2007).
Counter-ions that a name gives are not always drawn.

Columns and labels:
HUVEC sprouting [1] = assay: 3D angiogenesis assay of stimulators (HUVEC sprouting alone, with VEGF, with PTK787/ZK222584); format: cell-based, human; conditions: for HUVEC sprouting, compounds alone, compared to VEGF-induced sprouting: without addition of VEGF, 24 hours, basal sprouting subtracted, FIG. 22
Protocol: The HUVEC monolayer was treated for 6 hours with the compounds then the induced transcriptional changes, when compared to untreated HUVEC, were determined. The compounds were tested according to their ability to induce sprouting without addition of VEGF, in combination with VEGF and together with the VEGFR-2 inhibitor PTK787/ZK222584 (1 μM).

[2] = system: angiogenesis induced by vascular permeability factor/vascular endothelial growth factor; conditions: Basu S et al., Nat Med 2001; cited from earlier work
HUVEC sprouting [3] = assay: Primary angiogenesis screen, HUVEC spheroid evaluation (EC sprouting); format: cell-based, human; conditions: HUVEC spheroids in collagen gel, VEGF-supplemented, 24 hours
Protocol: A test substance was selected for evaluation in angiogenesis screens. The test substance was synthesized or obtained as appropriate and stored at −20° C. in DMSO. Prior to use, the test substance was thawed and 5 mM of the substance was diluted to a 10 fold concentrated working solution (100 μM) in endothelial cell basal medium. The basal medium fraction was supplemented with 25 ng VEGF/100 μl for the stimulation of HUVEC sprouting.
The screening procedures were modified versions of those described by Korff and Augustin (J Cell Sci 112: 3249-58, 1999). By way of summary, spheroids were prepared by pipetting 400 human umbilical vein endothelial cells (HUVEC) into each well of nonadhesive 96-well plates. Prior to use the HUVEC were cultured according to the supplier's instructions (PromoCell, Heidelberg, Germany). The cells were allowed to aggregate overnight into spheroids (Korff and Augustin: J Cell Biol 143: 1341-52, 1998). After aggregation, 48 HUVEC spheriods were harvested. Each harvested spheroid was seeded in 900 μl of methocel-collagen solution and pipetted into an individual well of a 24-well plate to allow collagen gel polymerization.
(§1) Thirty (30) minutes after seeding, the test substance was added. The working dilution (10 fold concentration) was utilized, 100 μl was pipetted on top of the polymerized collagen gel in each well. The plates were then incubated at 37° C. for 24 hours. At the end of the incubation period the plates were fixed by adding 1 ml paraformaldehyde (10%) to each well.
The HUVEC spheriods were microscopically assayed for endothelial cell (EC) sprouting intensity. The degree of EC sprouting was classified into one of four groups by comparing the degree of sprouting to that observed in VEGF control cells. […] For exemplary results, see FIG. 1.

[4] = system: NHDF (human dermal fibroblasts) scattering; assay: NHDF spheroid evaluation (fibroblast scattering); format: cell-based; conditions: NHDF spheroids in collagen gel, no supplements, 24 hours
Protocol: Where the test compound was classified as an inhibitor or stimulator, a second screening process was performed. In the second screen, the test substance was thawed and 5 mM of the substance was diluted to a 10 fold concentrated working solution (100 μM) in endothelial cell basal medium. No supplements were used in the basal medium.
Instead of HUVEC, spheroids were prepared by pipetting 400 human dermal fibroblasts (NHDF) into each well of nonadhesive 96-well plates. Prior to use the NHDF were cultured according to the supplier's instructions (PromoCell, Heidelberg, Germany). The cells were allowed to aggregate overnight into spheroids (Korff and Augustin: J Cell Biol 143: 1341-52, 1998). After aggregation, 48 NHDF spheroids were harvested. Each of the harvested spheroids was seeded in 900 μl of methocel-collagen solution and pipetted into an individual well of a 24-well plate to allow collagen gel polymerization.
as §1
The NHDF spheroids were microscopically assayed for fibroblast scattering intensity. […] For exemplary results, see FIG. 1.

[5] = system: tumor size and vessel density; assay: Further studies with other CPT-1 inhibitors; conditions: CPT-1 inhibitors at 10 and 100 μm; FIGS. 37A-40
Fibroblast = assay: Cell proliferation assay (crystal violet), Fibroblast; format: cell-based; conditions: 72 hours, OD 595 nm
Protocol: (§2) In order to further confirm the surprising results described above, the compounds were tested in a cell proliferation assay. Crystal violet was used to measure cell proliferation; this basic dye stains cell nuclei and provides a sensitive, rapid evaluation. Light absorption of unstained or destained cell layers is negligible, making it possible to perform cell number measurements in wells. Six cell types (HUVEC, HDMEC, SMC, Fibroblast, A375 and RENCA) were plated and treated with the compounds in a log2 titration for 72 hours. The optimal cell number for each cell type was determined and optical density (OD) was measured at 595 nm. Each data point was measured in quadruplicate. The assay was stopped after 72 hours and subsequently analyzed. The OD-value of the plated cells before addition of the compounds was subtracted from all OD-values obtained after treatment. The percentage in relation to control proliferation was then calculated. Negative values therefore represent a count of fewer cells than were plated. The IC50 is given below in Table 1. Results are shown as a percentage in relation to the control proliferation. The IC50 were calculated using GraphPad Prism software (GraphPad Software, Inc.). Perhexiline results are depicted graphically in FIGS. 4A-4C and Erythromycin results in FIGS. 5A-5C.

HDMEC = assay: Cell proliferation assay (crystal violet), HDMEC; format: cell-based; conditions: 72 hours, OD 595 nm
Protocol: as §2

A375 = assay: Cell proliferation assay (crystal violet), A375; format: cell-based; conditions: Homo sapiens, A-375, 72 hours, OD 595 nm
Protocol: as §2

SMC = assay: Cell proliferation assay (crystal violet), SMC; format: cell-based; conditions: 72 hours, OD 595 nm
Protocol: as §2

HUVEC = assay: Cell proliferation assay (crystal violet), HUVEC; format: cell-based; conditions: Homo sapiens, 72 hours, OD 595 nm
Protocol: In order to further confirm the surprising results described above, the compounds were tested in a cell proliferation assay. Crystal violet was used to measure cell proliferation; this basic dye stains cell nuclei and provides a sensitive, rapid evaluation. Light absorption of unstained or destained cell layers is negligible, making it possible to perform cell number measurements in wells.
Six cell types (HUVEC, HDMEC, SMC, Fibroblast, A375 and RENCA) were plated and treated with the compounds in a log2 titration for 72 hours. The optimal cell number for each cell type was determined and optical density (OD) was measured at 595 nm. Each data point was measured in quadruplicate. The assay was stopped after 72 hours and subsequently analyzed.
The OD-value of the plated cells before addition of the compounds was subtracted from all OD-values obtained after treatment. The percentage in relation to control proliferation was then calculated. Negative values therefore represent a count of fewer cells than were plated. The IC50 is given below in Table 1. Results are shown as a percentage in relation to the control proliferation. The IC50 were calculated using GraphPad Prism software (GraphPad Software, Inc.). Perhexiline results are depicted graphically in FIGS. 4A-4C and Erythromycin results in FIGS. 5A-5C. […]

B16F10 cells = assay: Cell viability of B16F10 cells; format: cell-based; conditions: Mus musculus, B16-F10; after 24 and 48 hours incubation
Protocol: A cell viability assay based on cellular reduction of resazurin to the fluorescent product resorufin was performed. Viable cells can metabolize and reduce the dye, whereas dead cells rapidly lose the capacity to do so, making the increase in fluorescence directly proportional to the number of viable cells. The tested compounds were added in a log2 titration and viable cells were analyzed 24 hours after treatment. The fluorescence was determined at an excitation wavelength of 560 nm and an emission wavelength of 590 nm. The percentage of viable cells in relation to the untreated control proliferation was calculated. […] Perhexiline results are depicted graphically in FIGS. 6A-6C and Erythromycin results in FIGS. 7A-7C.
Through the two aforementioned assays it was determined that RENCA cells are more sensitive when treated with Perhexiline than the other cell types in the proliferation assay and in the viability assay. Therefore, the B16F10 cells were subsequently tested. The B16F10 tumor model, like the RENCA model, is an orthotopic tumor model.

RENCA = assay: Cell proliferation assay (crystal violet), RENCA; format: cell-based; conditions: 72 hours, OD 595 nm
Protocol: as §2

HUVEC sprouting [6] = assay: Spheroid-based 3D angiogenesis assay (IC50, alone or with VEGFR-2 inhibitor); format: cell-based, human; conditions: determined in the spheroid-based 3D assay (FIG. 10); read-out: IC50 of the VEGFR-2 inhibitors
Description: Therefore, the assay was applied to test compounds alone or in combination with a VEGFR-2 inhibitor to address changes in IC50. […] The VEGFR-2 inhibitor was applied at a concentration close to the IC50.

[7] = system: Alexander cells (PLC/PRF/5) subcutaneous tumor; assay: Hepato-Cellular Carcinoma Model (HCC) in vivo study, subcutaneous Alexander cells; design: species or system NMRI nu/nu mice; conditions: subcutaneous Alexander cell tumors in mice, about 21 days of treatment; FIGS. 28-30
Protocol: Monolayers of Alexander cells can be grown in 85% Dulbecco's Modified Eagle's Medium (DMEM), 15% Fetal Bovine Serum (FBS), 4 mM L-glutamine, 100 units penicillinG/ml, and 100 μg of streptomycin-sulfate/ml. The cells can be cultured in a humidified atmosphere of 90% air and 10% carbon dioxide at 37° C. Media may preferably be changed every 4 days.
Six to eight week old female NMRI^−nu/nu mice could be utilized. The Alexander cells can be implanted in the left flank region of the mice, for example, by injecting 4×10^7 cells in 0.2 ml aliquots into the subcutaneous space of the left flank using a 29 G needle syringe. After inoculation the appearing subcutaneous tumours can be measured by callipering and multiplying the distances of all three dimensions.
Therapy can be initiated after the tumor size has reached a volume of approximately 100 mm^3 (day 1 of the study), and continue for about 21 days.
As shown, Group 1 would serve as control, where the animals would receive no further treatment after injection of Alexander cells.
After approximately 21 days of treatment, mice could be sacrificed and tumors collected and optionally stored appropriately at −80° C. For histological examination of the tumor vasculature, cryosections of the tissues (thickness of 5-10 μm) can be taken. For visualization of the blood vessels, immunohistochemical staining for CD 31 (PECAM-1) can be performed, and vessels counted microscopically using a defined magnification (×200).

CCc1cc(Cl)c(OC)c(C(=O)NC[C@@H]2CCCN2CC)c1O [Eticlopride]
HUVEC sprouting, compounds alone, compared to VEGF-induced sprouting (HUVEC sprouting [1]): stimulated sprouting in excess of the VEGF-induced sprouting | effect on angiogenesis (literature) [2]: not effect on angiogenesis

CC(C)C[C@H]1C(=O)N2CCC[C@H]2[C@]2(O)O[C@](NC(=O)[C@@H]3C=C4c5cccc6[nH]c(Br)c(c56)C[C@H]4N(C)C3)(C(C)C)C(=O)N12 [Bromocriptine, Bromocriptine mesylate]
HUVEC sprouting, compounds alone, compared to VEGF-induced sprouting (HUVEC sprouting [1]): stimulated sprouting in excess of the VEGF-induced sprouting | EC sprouting intensity compared with VEGF control (HUVEC sprouting [3]): angiogenesis stimulator | effect on angiogenesis (literature) [2]: prevent angiogenesis

NCCc1ccc(O)c(O)c1 [Dopamine]
effect on angiogenesis (literature) [2]: prevent angiogenesis

CCN(CC)C(=O)N[C@H]1C=C2c3cccc4[nH]cc(c34)C[C@H]2N(C)C1 [Lisuride (S)(−)]
fibroblast scattering (invasion) effect [4]: no fibroblast invasion effect | EC sprouting intensity compared with VEGF control (HUVEC sprouting [3]): increased sprouting stimulation

Clc1ccc(CSC(Cn2ccnc2)c2ccc(Cl)cc2Cl)cc1 (racemic) [Sulconazole, (±)-1-[2.4-dichloro-b-[(p-chlorobenzyl)-thio]-phenethyl]imidazole mononitrate]
EC sprouting intensity compared with VEGF control (HUVEC sprouting [3]): angiogenesis stimulators

CCOC(=O)[C@@]1(CCCCCCOc2ccc(Cl)cc2)CO1 [Etomoxir]
effects on tumor size and vessel density (as seen with Perhexiline) [5]: not seen

COc1ccc(CN2CCNCC2)c(OC)c1OC [Trimetazidine dihydrochloride]
effects on tumor size and vessel density (as seen with Perhexiline) [5]: not seen

CC[C@H]1OC(=O)[C@H](C)[C@@H](O[C@H]2C[C@@](C)(OC)[C@@H](O)[C@H](C)O2)[C@H](C)[C@@H](O[C@@H]2O[C@H](C)C[C@H](N(C)C)[C@H]2O)[C@](C)(O)C[C@@H](C)C(=O)[C@H](C)[C@@H](O)[C@]1(C)O [Erythromycin]
fibroblast scattering (invasion) effect [4]: no fibroblast invasion effect | IC50 (Fibroblast): > 100 µM | IC50 (HDMEC): ~100 µM | EC sprouting intensity compared with VEGF control (HUVEC sprouting [3]): sprouting inhibition | IC50 (A375): > 100 µM | IC50 (SMC): > 100 µM | IC50 (HUVEC): > 100 µM | IC50 (B16F10 cells): 10 µM | IC50 (RENCA): 56 µM

CC(C)(COP(=O)(O)OP(=O)(O)OC[C@H]1O[C@@H](n2cnc3c(N)ncnc32)[C@H](O)[C@@H]1OP(=O)(O)O)[C@@H](O)C(=O)NCCC(=O)NCCSC(=O)CC(=O)O [Malonyl-CoA]
effects on tumor size and vessel density (as seen with Perhexiline) [5]: not seen

C#C[C@]1(O)CC[C@H]2[C@@H]3CCC4=Cc5oncc5C[C@]4(C)[C@H]3CC[C@@]21C [Danazol]
fibroblast scattering (invasion) effect [4]: no fibroblast invasion effect | EC sprouting intensity compared with VEGF control (HUVEC sprouting [3]): increased sprouting stimulation

Clc1ccc(COC(Cn2ccnc2)c2ccc(Cl)cc2Cl)c(Cl)c1 (centres unmarked) [Miconazole]
fibroblast scattering (invasion) effect [4]: no fibroblast invasion effect | EC sprouting intensity compared with VEGF control (HUVEC sprouting [3]): increased sprouting stimulation

Clc1ccc(Nc2nnc(Cc3ccncc3)c3ccccc23)cc1 [PTK787/ZK222584]
VEGF-induced sprouting (HUVEC sprouting [1]; at a concentration of 1 μM): completely prevents VEGF-induced sprouting | IC50 (HUVEC sprouting [6]): 0.1 µM | tumor growth compared to control [7]: reduced

Clc1ccc(COC(Cn2ccnc2)c2ccc(Cl)cc2Cl)cc1.O=[N+]([O-])O (centres unmarked) [Econazole, 1-[2-{(4-chloro-phenyl)methoxy}-2-(2,4-dichlorophenyl)ethyl]-1H-imidazole mononitrate]
EC sprouting intensity compared with VEGF control (HUVEC sprouting [3]): angiogenesis stimulators
